Source: article PMC9963121, “Development of Combretastatin A-4 Analogues as Potential Anticancer Agents with Improved Aqueous Solubility” (Molecules, 2023)

Legend:
[1] = tested on: HCT-116 colorectal cancer cell; assay: MTT cell growth inhibition assay, HCT-116 colorectal cancer cells; type: cell-based, human; settings: Homo sapiens, HCT-116; MTT; mean ± SD of three experiments
Description: (§1) Initially, we designed and synthesised seven compounds—9a and 12a1–12a6—and evaluated the anticancer activity and aqueous solubility. We evaluated the cytotoxic effects of these stilbene nitrile analogues against a panel of four human cancer cell lines (HCT-116, BEL-7402, MCF-7 and AGS) and two human non-cancerous normal cell lines (L-02 and MCF-10A), using CA-4 as a control. The compounds were screened for aqueous solubility in 0.01 M PBS using a high throughput UV method. […] It is possible that the size of the nitrogen heterocycle had little effect on the activity of these compounds. […] The aqueous solubility of all the compounds 12a1–12a6 was higher than that of 9a, particularly that of 12a1 and 12a2 containing piperazine rings. […] Of the six compounds with improved aqueous solubility, 12a1 had the best activity.
All human cell lines were used in this study. AGS gastric cancer cell, BEL-7402 liver cancer cell, HCT-116 colorectal cancer cell, L-02 normal liver cell, MCF-7 breast cancer cell, and MCF-10A normal breast cell were initially purchased from American Type Culture Collection (ATCC, Manassas, VA, USA). RPMI-1640 media, DMEM and FBS, were provided by Gibco Company. The cells were maintained in DMEM or RPMI-1640, supplemented with 10% FBS, 100 IU/mL penicillin and […] streptomycin, and at 37 °C in a humidified atmosphere containing 5% CO2.
The experiment was carried out according to the method of reference.

[2] = Aqueous solubility in 0.01 M PBS, high throughput UV method; type: physicochemical; settings: aqueous phosphate buffer, aqueous buffer; sodium phosphate buffer 0.01 M, pH 7.4, 22 ± 2 °C; mean ± SD
Description: as §1
The aqueous solubility was determined as a previously reported procedure. Put simply, a certain amount of powdered compound was placed in a 2 mL centrifuge tube and mixed with an appropriate volume of aqueous phosphate buffer (10 mM, pH 7.4) to make the whole system supersaturated. The mixtures were sonicated (KQ5200DE numerical control ultrasonic cleaner, Kunshan Ultrasonic Instrument Co., Ltd., SuZhou, China) for 20 min. After sonication, the mixture was allowed to equilibrate at RT (22 ± 2 °C) for 1.5 h with vortex shaking (1200 rpm). Then centrifuged at 3000 rpm for 15 min (1-14k, sigma, Darmstadt, Germany), the supernatant was filtered with a 0.22 µM filter membrane. And then, take 150 µL of filtrate and add it to 96-well UV plate with triplicate. Draw 150 μL of blank solution was added into plate as blank control. The 96-well UV plate prepared above was read on a Synergy HTX Multifunctional Microplate Reader (BioTek, Vermont, USA) at 294 nm. The absorbance of the sample was corrected according to the UV response of the sample and blank solution, and the corrected UV response values were used for solubility calculations by bringing into the standard curve of the compound. […]
1.5. Solubility Assessment
The aqueous solubility was determined as previously reported using the high throughput solubility screens procedure published by Bruno Bard et al [9. 10]. Put simply, a certain amount of powdered compound was placed in a 2 ml centrifuge tube and mixed with an appropriate volume of aqueous phosphate buffer (0.01 M, pH 7.4) to make the whole system supersaturated. The mixtures were sonicated (KQ5200DE numerical control ultrasonic cleaner, Kunshan Ultrasonic Instrument Co., Ltd., China) for 20 min. After sonication, the mixture was allowed to equilibrate at room temperature (22 ± 2°C) for 1.5 h with vortex shaking (1200 rpm). Then the centrifuge tube was put into the centrifuge (1-14k, sigma, Germany), centrifuged with 3000 rpm for 15 minutes, 0.22 µM filter membrane filtration supernatant, then take 150 µl filtrate and add it to 96-well UV plate, with three well for each compound. Draw 150 μL blank solution were added into 96 well-plate as blank control. The 96-well UV […]
plate prepared above was read on a SynergyHTX Multifunctional microplate reader (BioTek, USA) at 338 nm (compounds 12a-12d and 15-20) or 370 nm (compounds 9a-d). The absorbance of the sample was corrected according to the UV response of the sample and blank solution, and the corrected UV responses value were used for solubility calculations by bring into the standard curve of the compound. […]

[3] = Compound stability in rat plasma, HPLC; type: in vitro ADME; settings: 37 °C
Description: Blood was collected from SD rats (200–250 g, male and female, Animal Experimental Center of Yanbian University) into heparin tubes, and supernatant plasma was collected after centrifugation.
A certain amount of 9a and 12a1 were accurately weighed and mixed with rat plasma. After incubation at 37 ℃ for 0, 6, 12, 24 and 36 h, the plasma samples were treated with methanol and analyzed by HPLC to determine their stability in plasma.
A HITACHI Primaide HPLC liquid chromatography system was equipped and used for all analyses. Chromatographic separation was performed on a Welch Ultimate XB-C18 column (3.9 mm × 150 mm, 5 μm; Welch, China). The analytes were eluted using a gradient method with a flow rate of 1 mL/min. Mobile phase A was Ultra pure water, and mobile phase B was methanol according to the following gradient: (1) The gradient elution conditions of 9a: 0 to 8 min, 55% to 67% B; 8.1 to 15 min, 67% to 90% B; 15.1 to 25 min, 55% B. (2) The gradient elution conditions of 12a1: 0 to 9 min, 55% to 65% B; 9.1 to 12 min, 65% to 75% B; 12.1 to 15 min, 75% to 85% B; 15.1 to 20 min, 90% B; 20.1 to 30 min, 55% B. The injection volume was 3 μL. The column temperature was set at 40 °C. […]
1.6. Plasma stability assessment
Prepare plasma:blood was collected from SD rats (200-250g, male and female, Animal Experimental Center of Yanbian University) into heparin tubes, and supernatant plasma was collected after centrifugation.
A certain amount of 9a and 12a1 were accurately weighed and mixed with rat plasma.
After incubation at 37℃ for 0 h, 6 h, 12 h, 24 h and 36 h, the plasma samples were treated with methanol and analyzed by HPLC to determine their stability in plasma.
Analytical instrument and conditions:
A HITACHI Primaide HPLC liquid chromatography system equipped was used for all analyses. Chromatographic separation was performed on a Welch Ultimate XB-C18 column (3.9 mm × 150 mm, 5 μm; Welch, China). The analytes were eluted using a gradient method with a flow rate of 1 mL/min. Mobile phase A was Ultra pure water, and mobile phase B was methanol according to the following gradient: (1). The gradient elution conditions of 9a: 0 to 8 minutes, 55% to 67% B; 8.1 to 15 minutes, 67% to 90% B; 15.1 to 25 minutes, 55% B. (2). The gradient elution conditions of […]

IC50 [1]: 2440 ± 290 nM
solubility thermodynamic at 1.5 h [2]: 18.2 ± 0.619 mg/mL
Decrease of HPLC peak area in rat plasma ([3]; within 36 h, UV 294 nm): ~22%
Plasma stability (in words) ([3]; rat plasma, 24 h): retained plasma stability over 24 h
SMILES: COc1cc(/C(C#N)=C/c2ccc(NC(=O)CN3CCN(C)CC3)cc2)cc(OC)c1OC [12a1]
